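Method: 48-hour compound exposure of cells in 96-well plates, five concentrations, linear interpolation of endpoints. GI50: concentration for 50% inhibition of growth. At the TGI there is no net growth.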
How the values were obtained:
Experiment in all cases: DTP human tumour cell line panel, 48 h
786-0 renal = system: 786-0 renal
ACHN renal = system: ACHN renal
CAKI-1 renal = system: CAKI-1 renal
CCRF-CEM leukemia = system: CCRF-CEM leukemia
DU-145 prostate = system: DU-145 prostate
HOP-62 NSCLC = system: HOP-62 NSCLC
IGROV1 ovarian = system: IGROV1 ovarian
MDA-MB-231 breast = system: MDA-MB-231 breast
SK-MEL-2 melanoma = system: SK-MEL-2 melanoma
SN12C renal = system: SN12C renal

Row | Structure (SMILES) | GI50 (786-0 renal) [µM] | TGI (786-0 renal) [µM] | GI50 (ACHN renal) [µM] | TGI (ACHN renal) [µM] | GI50 (CAKI-1 renal) [µM] | TGI (CAKI-1 renal) [µM] | GI50 (CCRF-CEM leukemia) [µM] | TGI (CCRF-CEM leukemia) [µM] | GI50 (DU-145 prostate) [µM] | TGI (DU-145 prostate) [µM] | GI50 (HOP-62 NSCLC) [µM] | TGI (HOP-62 NSCLC) [µM] | GI50 (IGROV1 ovarian) [µM] | TGI (IGROV1 ovarian) [µM] | GI50 (MDA-MB-231 breast) [µM] | TGI (MDA-MB-231 breast) [µM] | GI50 (SK-MEL-2 melanoma) [µM] | TGI (SK-MEL-2 melanoma) [µM] | GI50 (SN12C renal) [µM] | TGI (SN12C renal) [µM]
1 | O=C(CN1CCN(c2ncccn2)CC1)Nc1ccc(Cl)cc1C(=O)c1ccccc1Cl | 62 | > 100 | > 100 | > 100 | > 100 | > 100 | 83.5 | > 100 | > 100 | > 100 | 13.2 | 57.5 | 93.2 | > 100 | > 100 | > 100 | > 100 | > 100 | > 100 | > 100
2 | Cc1ncc(CN=Cc2ccc(Cl)cc2)c(N)n1 | – | > 100 | – | > 100 | – | > 100 | – | > 100 | – | > 100 | – | > 100 | – | > 100 | – | > 100 | – | > 100 | – | > 100
3 | C=CCn1c2c(c3ccccc3c1=O)C(=O)c1ccccc1-2 | – | > 100 | – | > 100 | – | > 100 | – | > 100 | – | > 100 | – | > 100 | – | > 100 | – | > 100 | – | > 100 | – | > 100
4 | CS(=O)(=O)CCNCc1nc(-c2ccc3ncnc(Nc4ccc(F)c(Cl)c4)c3c2)cs1 | 22.9 | > 25 | 0.785 | > 25 | 1.47 | > 25 | 15.4 | > 25 | 5.49 | > 25 | > 24.1 | > 25 | 7.39 | > 25 | 23.6 | > 25 | > 17.6 | > 25 | 15.6 | > 25
5 | C=C1C(=O)O[C@H]2[C@H]1CC/C(Cn1cc(CNC(=O)Cc3cn(C(=O)c4ccc(Cl)cc4)c4ccc(OC)cc34)nn1)=C\CC[C@@]1(C)O[C@@H]21 | 1.59 | 3.02 | 1.92 | 3.71 | 1.49 | 2.89 | 0.384 | 2.4 | 1.75 | 3.35 | 3.91 | 15.1 | 1.71 | 3.32 | 1.58 | 3.12 | 2.01 | 4.18 | 1.62 | 3.21

Source: PubChem BioAssay (NCI)
